Assay results reported in patent publication US20250179078A1, “INHIBITORS OF NLRP3” (PTC THERAPEUTICS, INC., priority 2022, published 2025).

Biological target: T1, NLRP3 (Homo sapiens, UniProt Q96P20)
T1 construct: host or cells: THP-1 cells differentiated with PMA
Experiment: IL-1β Secretion Assay (NLRP3-dependent IL1β secretion in THP1 cells)
Format: cell-based
Settings: PMA-differentiated THP-1 cells; compounds incubated 20 h; 2.5 μM Nigericin 3 h; HTRF IL-1β readout; read-out: IC50 IL-1β Inhibition
In short: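 IL-1β in conditioned media, measured by HTRF after 3 h 2.5 μM nigericin stimulation, gave % inhibition fitted logistically for IC50. Before that, PMA-differentiated (100 ng/mL, 24 h) THP-1 cells were preincubated 20 h with 7 compound concentrations (3-fold serial, DMSO 1:200).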

T1 sequence (Q96P20 whole entry): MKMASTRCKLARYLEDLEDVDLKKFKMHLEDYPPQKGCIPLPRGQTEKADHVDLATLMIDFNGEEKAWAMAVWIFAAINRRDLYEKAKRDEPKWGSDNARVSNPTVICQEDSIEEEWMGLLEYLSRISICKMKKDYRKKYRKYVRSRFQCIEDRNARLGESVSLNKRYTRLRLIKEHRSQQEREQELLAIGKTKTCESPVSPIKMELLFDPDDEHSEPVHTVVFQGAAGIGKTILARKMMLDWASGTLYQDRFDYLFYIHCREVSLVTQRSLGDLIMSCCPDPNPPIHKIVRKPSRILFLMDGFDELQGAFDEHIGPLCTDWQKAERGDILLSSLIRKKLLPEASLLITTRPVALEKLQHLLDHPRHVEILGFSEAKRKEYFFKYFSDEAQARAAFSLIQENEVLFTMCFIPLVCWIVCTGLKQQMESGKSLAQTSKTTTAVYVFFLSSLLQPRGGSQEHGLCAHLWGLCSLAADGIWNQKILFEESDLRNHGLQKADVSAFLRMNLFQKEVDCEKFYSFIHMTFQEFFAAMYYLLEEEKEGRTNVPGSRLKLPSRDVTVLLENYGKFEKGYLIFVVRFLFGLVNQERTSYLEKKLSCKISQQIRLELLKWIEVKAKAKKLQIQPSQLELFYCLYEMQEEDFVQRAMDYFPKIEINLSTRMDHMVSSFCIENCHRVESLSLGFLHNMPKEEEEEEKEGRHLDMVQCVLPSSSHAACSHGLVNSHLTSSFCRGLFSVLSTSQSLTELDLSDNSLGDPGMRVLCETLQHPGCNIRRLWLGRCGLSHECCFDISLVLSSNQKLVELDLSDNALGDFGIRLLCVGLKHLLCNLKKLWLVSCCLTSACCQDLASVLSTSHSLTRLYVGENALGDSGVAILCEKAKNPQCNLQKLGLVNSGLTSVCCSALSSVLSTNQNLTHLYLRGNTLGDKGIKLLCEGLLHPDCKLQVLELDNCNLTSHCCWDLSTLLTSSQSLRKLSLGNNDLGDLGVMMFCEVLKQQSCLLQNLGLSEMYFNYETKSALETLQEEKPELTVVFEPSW

Row | SMILES | IC50
1 | COc1ccc(-c2nnc(NC3CCNC3=O)n3cncc23)c(C2CC2)c1 (stereo not drawn) [Compound 320, 3-{[1-(2-cyclopropyl-4-methoxyphenyl)imidazo[1,5-d][1,2,4]triazin-4-yl]amino}pyrrolidin-2-one] | 10 to 100 nM
2 | COc1ccc(-c2nnc(N[C@H]3C[C@@](C)(O)C3)n3ccc(F)c23)c(OC(F)F)c1 [Compound 58, (1s,3s)-3-({1-[2-(difluoromethoxy)-4-methoxyphenyl]-8-fluoropyrrolo[1,2-d][1,2,4]triazin-4-yl}amino)-1-methylcyclobutan-1-ol] | 10 to 100 nM
3 | Cc1ccc(-c2nnc(N[C@@H]3CCCN(CCO)C3)n3cncc23)c(OC(F)(F)F)c1 [Compound 355, 2-[(3R)-3-({1-[4-methyl-2-(trifluoromethoxy)phenyl]imidazo[1,5-d][1,2,4]triazin-4-yl}amino)piperidin-1-yl]ethan-1-ol] | 10 to 100 nM
4 | COc1ccc(-c2nnc(NC(C)c3cccnc3)n3cncc23)c(OC(F)(F)F)c1 (single isomer, unassigned) [Compound 309] | 10 to 100 nM
5 | O[C@@H]1COCC[C@H]1Nc1nnc(-c2ccc(C(F)(F)F)cc2OC(F)(F)F)c2cncn12 [Compound 322, (3S,4R)-4-({1-[2-(trifluoromethoxy)-4-(trifluoromethyl)phenyl]imidazo[1,5-d][1,2,4]triazin-4-yl}amino)oxan-3-ol] | 10 to 100 nM
6 | CCOc1ccc(-c2nnc(N[C@@H]3CCCN(C)C3)n3cccc23)c(OC(F)(F)F)c1 [Compound 43, 1-[4-ethoxy-2-(trifluoromethoxy)phenyl]-N-[(3R)-1-methylpiperidin-3-yl]pyrrolo[1,2-d][1,2,4]triazin-4-amine] | 10 to 100 nM
7 | O[C@H]1CCC[C@@H](Nc2nnc(-c3ccc(C(F)(F)F)cc3C(F)(F)F)c3cncn23)C1 [Compound 215, (1S,3R)-3-({1-[2,4-bis(trifluoromethyl)phenyl]imidazo[1,5-d][1,2,4]triazin-4-yl}amino)cyclohexan-1-ol] | 10 to 100 nM
8 | FC(F)(F)Oc1cc(C(F)(F)F)ccc1-c1nnc(Nc2cc[nH]n2)n2cccc12 [Compound 150, N-(1H-pyrazol-3-yl)-1-[2-(trifluoromethoxy)-4-(trifluoromethyl)phenyl]pyrrolo[1,2-d][1,2,4]triazin-4-amine] | 100 to 300 nM
9 | COc1ccc(-c2nnc(N[C@H]3C[C@@](C)(CO)C3)n3cncc23)c(OC(F)(F)F)c1 [Compound 342, [(1s,3s)-3-({1-[4-methoxy-2-(trifluoromethoxy)phenyl]imidazo[1,5-d][1,2,4]triazin-4-yl}amino)-1-methylcyclobutyl]methanol] | 10 to 100 nM
10 | COc1ccc(-c2nnc(N[C@@H]3CCOC3)n3cccc23)c(OC(F)(F)F)c1 [Compound 68, 1-[4-methoxy-2-(trifluoromethoxy)phenyl]-N-[(3R)-oxolan-3-yl]pyrrolo[1,2-d][1,2,4]triazin-4-amine] | 10 to 100 nM
11 | CCN1CCC[C@@H](Nc2nnc(-c3ccc(C(F)(F)F)cc3OC3CC3)c3cccn23)C1 [Compound 178, 1-[2-(cyclopropyloxy)-4-(trifluoromethyl)phenyl]-N-[(3R)-1-ethylpiperidin-3-yl]pyrrolo[1,2-d][1,2,4]triazin-4-amine] | 1 to 10 nM
12 | COc1ccc(-c2nnc(N[C@@H]3CCCN(CCO)C3)n3cncc23)c(OC(F)F)c1 [Compound 225, 2-[(3R)-3-({1-[2-(difluoromethoxy)-4-methoxyphenyl]imidazo[1,5-d][1,2,4]triazin-4-yl}amino)piperidin-1-yl]ethan-1-ol] | 1 to 10 nM
13 | Cc1cc2c(-c3ccc(C4CC4)cc3C(F)F)nnc(N[C@@H]3CCCN(C)C3)n2c1 [Compound 14, 1-[4-cyclopropyl-2-(difluoromethyl)phenyl]-7-methyl-N-[(3R)-1-methylpiperidin-3-yl]pyrrolo[1,2-d][1,2,4]triazin-4-amine] | 1 to 10 nM
14 | OCCN1CCC[C@@H](Nc2nnc(-c3ccc(C4CC4)cc3OC(F)F)c3cncn23)C1 [Compound 185, 2-[(3R)-3-({1-[4-cyclopropyl-2-(difluoromethoxy)phenyl]imidazo[1,5-d][1,2,4]triazin-4-yl}amino)piperidin-1-yl]ethan-1-ol] | 1 to 10 nM
15 | COc1ccc(-c2nnc(NC3CCCN(C)C3=O)n3cncc23)c(CC(F)(F)F)c1 (stereo not drawn) [Compound 330, 3-({1-[4-methoxy-2-(2,2,2-trifluoroethyl)phenyl]imidazo[1,5-d][1,2,4]triazin-4-yl}amino)-1-methylpiperidin-2-one] | 10 to 100 nM
16 | CC(Nc1nnc(-c2ccc(C(F)(F)F)cc2OC(F)(F)F)c2cccn12)c1cccc(O)c1 (stereo not drawn) [Compound 142, 3-[1-({1-[2-(trifluoromethoxy)-4-(trifluoromethyl)phenyl]pyrrolo[1,2-d][1,2,4]triazin-4-yl}amino)ethyl]phenol] | 1 to 10 nM
17 | C[C@]1(O)C[C@@H](Nc2nnc(-c3ccc(Br)cc3OC(F)F)c3cncn23)C1 [Compound 199, (1s,3s)-3-({1-[4-bromo-2-(difluoromethoxy)phenyl]imidazo[1,5-d][1,2,4]triazin-4-yl}amino)-1-methylcyclobutan-1-ol] | 1 to 10 nM
18 | Cc1ccc(-c2nnc(NC3CCNC3=O)n3cccc23)c(CC(F)(F)F)c1 (stereo not drawn) [Compound 157, 3-({1-[4-methyl-2-(2,2,2-trifluoroethyl)phenyl]pyrrolo[1,2-d][1,2,4]triazin-4-yl}amino)pyrrolidin-2-one] | 1 to 10 nM
19 | OC[C@H]1C[C@@H](Nc2nnc(-c3ccc(C(F)(F)F)cc3OC(F)(F)F)c3cccn23)C1 [Compound 141, [(1s,3s)-3-({1-[2-(trifluoromethoxy)-4-(trifluoromethyl)phenyl]pyrrolo[1,2-d][1,2,4]triazin-4-yl}amino)cyclobutyl]methanol] | 1 to 10 nM
20 | Cc1cc2c(-c3ccc(C(F)(F)F)cc3C(F)(F)F)nnc(N[C@@H]3CCOC[C@H]3O)n2c1 [Compound 164, (3S,4R)-4-({1-[2,4-bis(trifluoromethyl)phenyl]-7-methylpyrrolo[1,2-d][1,2,4]triazin-4-yl}amino)oxan-3-ol] | 100 to 300 nM
21 | COc1ccc(-c2nnc(N[C@H]3C[C@@H](CO)C3)n3cncc23)c(OC(F)(F)F)c1 [Compound 291, [(1s,3s)-3-({1-[4-methoxy-2-(trifluoromethoxy)phenyl]imidazo[1,5-d][1,2,4]triazin-4-yl}amino)cyclobutyl]methanol] | 1 to 10 nM

Other lines, results leading:

Row | IC50 | SMILES
22 | < 1 nM | Cc1ncn2c(N[C@@H]3CCCN(C)C3)nnc(-c3ccc(C(F)(F)F)cc3CC(F)(F)F)c12 [Compound 279, 8-methyl-N-[(3R)-1-methylpiperidin-3-yl]-1-[2-(2,2,2-trifluoroethyl)-4-(trifluoromethyl)phenyl]imidazo[1,5-d][1,2,4]triazin-4-amine]
23 | < 1 nM | CCN1CCC[C@@H](Nc2nnc(-c3ccc(C(F)(F)F)cc3CC(F)(F)F)c3cncn23)C1 [Compound 261, N-[(3R)-1-ethylpiperidin-3-yl]-1-[2-(2,2,2-trifluoroethyl)-4-(trifluoromethyl)phenyl]imidazo[1,5-d][1,2,4]triazin-4-amine]
24 | < 1 nM | COc1ccc(-c2nnc(N[C@@H]3CCCN(CCO)C3)n3cncc23)c(OC(F)(F)F)c1 [Compound 211, 2-[(3R)-3-({1-[4-methoxy-2-(trifluoromethoxy)phenyl]imidazo[1,5-d][1,2,4]triazin-4-yl}amino)piperidin-1-yl]ethan-1-ol]
25 | < 1 nM | CCN1CCC[C@@H](Nc2nnc(-c3ccc(OC)cc3C(F)(F)F)c3cc(C)nn23)C1 [Compound 373, N-[(3R)-1-ethylpiperidin-3-yl]-4-[4-methoxy-2-(trifluoromethyl)phenyl]-2-methylpyrazolo[1,5-d][1,2,4]triazin-7-amine]
26 | 1 to 10 nM | COc1ccc(-c2nnc(NC3CCOCC3)n3cccc23)c(OC(F)(F)F)c1 [Compound 67, 1-[4-methoxy-2-(trifluoromethoxy)phenyl]-N-(oxan-4-yl)pyrrolo[1,2-d][1,2,4]triazin-4-amine]
27 | 1 to 10 nM | Cc1ccc(-c2nnc(N[C@H]3C[C@@](C)(O)C3)n3nc(C)cc23)c(CC(F)(F)F)c1 [Compound 390, (1s,3s)-1-methyl-3-({2-methyl-4-[4-methyl-2-(2,2,2-trifluoroethyl)phenyl]pyrazolo[1,5-d][1,2,4]triazin-7-yl}amino)cyclobutan-1-ol]
28 | 1 to 10 nM | OC[C@H]1C[C@@H](Nc2nnc(-c3ccc(C(F)(F)F)cc3C(F)(F)F)c3cncn23)C1 [Compound 257, [(1s,3s)-3-({1-[2,4-bis(trifluoromethyl)phenyl]imidazo[1,5-d][1,2,4]triazin-4-yl}amino)cyclobutyl]methanol]
29 | 1 to 10 nM | O[C@H]1CCC[C@@H](Nc2nnc(-c3ccc(OC(F)F)cc3OC(F)(F)F)c3cccn23)C1 [Compound 153, (1S,3R)-3-({1-[4-(difluoromethoxy)-2-(trifluoromethoxy)phenyl]pyrrolo[1,2-d][1,2,4]triazin-4-yl}amino)cyclohexan-1-ol]
30 | 1 to 10 nM | O[C@@H]1CCCC[C@H]1Nc1nnc(-c2ccc(Br)cc2OC(F)F)c2cncn12 [Compound 306, (1R,2R)-2-({1-[4-bromo-2-(difluoromethoxy)phenyl]imidazo[1,5-d][1,2,4]triazin-4-yl}amino)cyclohexan-1-ol]
31 | < 1 nM | CCN1CCC[C@@H](Nc2nnc(-c3ccc(OC)cc3C(F)(F)F)c3cncn23)C1 [Compound 212, N-[(3R)-1-ethylpiperidin-3-yl]-1-[4-methoxy-2-(trifluoromethyl)phenyl]imidazo[1,5-d][1,2,4]triazin-4-amine]
32 | < 1 nM | CN1CCC[C@@H](Nc2nnc(-c3ccc(Br)cc3OC(F)F)c3cncn23)C1 [Compound 195, 1-[4-bromo-2-(difluoromethoxy)phenyl]-N-[(3R)-1-methylpiperidin-3-yl]imidazo[1,5-d][1,2,4]triazin-4-amine]
33 | < 1 nM | CCN1CCC[C@@H](Nc2nnc(-c3ccc(C(F)(F)F)cc3C(F)(F)F)c3cncn23)C1 [Compound 271, 1-[2,4-bis(trifluoromethyl)phenyl]-N-[(3R)-1-ethylpiperidin-3-yl]imidazo[1,5-d][1,2,4]triazin-4-amine]
